Tests used:
Type in all cases: biochemical
[1] = biological target: T1, Human recombinant ALDH2 (Homo sapiens, UniProt P05091); assay: Enzymatic assay with human recombinant ALDH (NADH fluorescence), IC50; settings: substrate Hexanal, NAD+, 37° C.
T1 construct: purchased Creative BioMart, NY, USA
T1 sequence (P05091 18-517): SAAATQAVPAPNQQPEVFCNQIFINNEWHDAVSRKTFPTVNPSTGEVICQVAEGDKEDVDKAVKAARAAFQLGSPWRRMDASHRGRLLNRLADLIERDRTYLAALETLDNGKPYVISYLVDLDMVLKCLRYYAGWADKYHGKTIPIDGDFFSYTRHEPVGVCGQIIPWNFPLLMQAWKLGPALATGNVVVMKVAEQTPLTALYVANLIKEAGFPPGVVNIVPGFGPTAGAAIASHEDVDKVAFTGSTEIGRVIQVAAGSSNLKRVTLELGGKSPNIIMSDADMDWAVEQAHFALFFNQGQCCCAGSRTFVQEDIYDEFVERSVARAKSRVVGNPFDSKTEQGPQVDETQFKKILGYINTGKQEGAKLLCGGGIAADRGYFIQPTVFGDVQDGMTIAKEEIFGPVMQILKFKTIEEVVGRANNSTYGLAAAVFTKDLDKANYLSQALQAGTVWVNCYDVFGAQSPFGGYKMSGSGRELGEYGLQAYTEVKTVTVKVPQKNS
Description: Human recombinant ALDH1A1, ALDH1 A2, ALDH1A3, ALDH2 (Creative BioMart, NY, USA) were prepared at 1 mg/mL. The enzymatic reactions were performed using saturating concentrations of substrate. To test the enzymatic activity of the enzymes, 10 μL of enzyme was added into a reaction buffer containing 50 mM HEPES pH 7.2, 30 mM MgCl2, plus 20 mM NAD^+ cofactor and 2 mM Hexanal (Sigma-Aldrich, St. Louis, Mo., USA) in the presence or absence of the different tested compounds. Internal standards were prepared with Nicotinamide adenine dinucleotide reduce form (NADH, 500 μM, Sigma-Aldrich) in Reaction Buffer (50 mM HEPES pH 7.2, 30 mM MgCl2).
Time-dependent inhibition assays were performed for 0-2-5-10-15-20-30-45-60 min at 37° C. in 1 mL-quartz cuvette. The formation of NADH was monitored, reading samples at excitation wavelength=340 nm/emission wavelength=460 nm (fluorescence) for at least 600 sec using Cary Eclipse Varian fluorimeter.
Negative control consisted in the same reactions except that enzyme was not added (enzyme blank). To determine the slope for enzyme blank and calculate product concentration (Unit of fluorescence) the following formulae was used: […]
where Cst is the standard NADH concentration, Fst is the standard fluorescence and dF/dt is the slope of the time dependent fluorescence (S. Sotobodowska et al, 2012). The specific activity of the enzymes (μmol/min·mg-U/mg) in the absence of presence of inhibitors was calculated as follows: […]

[2] = biological target: T1, Human recombinant ALDH2; assay: Kinetic parameters and inhibition type from Kobs versus inhibitor concentration plots; settings: from Kobs versus [I] plots
Description: (§1) The kinetic data are expressed as the mean±standard error from three independent determination. Kinact/Ki was determined from Kobs versus concentration of the inhibitor [I] plots. […] The Kobs were obtained from negative exponential fit using non-linear regression program GraFit 5.0 (Erithacus software).
(§2) To determine the inhibition mechanisms of the tested compounds for each isoenzyme, the corresponding Kobs were calculated as mentioned above, plotting product concentration vs time incubation of the enzymes with the test compounds at 300 μM, 200 μM, 100 μM, 50 μM, 20 μM and 10 μM. The kobs were obtained for each concentration of inhibitor tested, from the negative exponential fit using non-linear regression program GraFit 5.0 (Erithacus software). Finally, the kinetic parameter of kinact/KI was determined from the plot of kobs versus the corresponding concentration of inhibitor. The slope of the linear fit of data indicated the rate constant in μM^−1·min^−1.

[3] = biological target: T2, Human recombinant ALDH1A1 (Homo sapiens, UniProt P00352); assay: as above; settings: for kinact/KI: from Kobs versus [I] plots
T2 construct: purchased Creative BioMart, NY, USA
T2 sequence (P00352 1-501): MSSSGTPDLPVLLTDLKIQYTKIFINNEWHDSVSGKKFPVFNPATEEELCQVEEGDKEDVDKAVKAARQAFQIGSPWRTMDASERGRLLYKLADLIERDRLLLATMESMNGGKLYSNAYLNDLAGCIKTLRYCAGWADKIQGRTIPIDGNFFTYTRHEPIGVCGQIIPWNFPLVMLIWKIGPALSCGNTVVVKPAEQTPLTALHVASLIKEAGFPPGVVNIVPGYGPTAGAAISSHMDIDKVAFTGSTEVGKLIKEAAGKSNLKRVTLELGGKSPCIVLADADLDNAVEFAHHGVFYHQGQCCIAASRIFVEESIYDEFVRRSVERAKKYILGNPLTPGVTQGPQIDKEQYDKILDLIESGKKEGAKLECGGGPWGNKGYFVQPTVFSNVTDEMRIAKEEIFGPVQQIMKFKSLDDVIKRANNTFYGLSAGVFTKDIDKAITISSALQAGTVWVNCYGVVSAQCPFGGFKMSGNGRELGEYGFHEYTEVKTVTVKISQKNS
Description: as §1, §2

[4] = biological target: T3, Human recombinant ALDH1A3 (Homo sapiens, UniProt P47895); assay: as above; settings: for kinact/KI: from Kobs versus [I] plots; for Specificity of interaction with ALDH1A3: compared with DIMATE
T3 construct: purchased Creative BioMart, NY, USA
T3 sequence (P47895 1-512): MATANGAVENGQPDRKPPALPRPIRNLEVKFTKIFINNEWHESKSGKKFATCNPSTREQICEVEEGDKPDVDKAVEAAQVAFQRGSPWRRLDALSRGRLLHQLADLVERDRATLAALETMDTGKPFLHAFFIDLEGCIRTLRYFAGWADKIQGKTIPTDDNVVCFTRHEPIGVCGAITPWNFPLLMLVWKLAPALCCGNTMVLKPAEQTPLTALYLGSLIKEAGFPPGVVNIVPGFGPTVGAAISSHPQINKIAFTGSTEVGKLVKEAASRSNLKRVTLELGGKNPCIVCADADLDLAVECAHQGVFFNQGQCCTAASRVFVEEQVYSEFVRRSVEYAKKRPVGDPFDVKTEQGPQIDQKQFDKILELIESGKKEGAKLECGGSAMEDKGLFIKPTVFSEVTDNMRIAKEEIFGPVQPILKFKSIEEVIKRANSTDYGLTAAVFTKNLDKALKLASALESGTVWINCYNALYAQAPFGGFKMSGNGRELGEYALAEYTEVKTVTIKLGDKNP
Description: as §1, §2

Row | Structure (SMILES) | IC50 [1] [µM] | kinact/KI [2] [M⁻¹ s⁻¹] | ALDH1A1 Inhibition Type [3] | kinact/KI [3] [M⁻¹ s⁻¹] | ALDH1A3 Inhibition Type [4] | kinact/KI [4] [M⁻¹ s⁻¹] | Specificity of interaction with ALDH1A3 [4]
1 | CSC(=O)C#CC(C)(C)N(C)C [DIMATE, S-methyl 4-(dimethylamino)-4-methylpent-2-ynethioate, reference compound] | 72 ± 9 | 7.08 | specific | 15 | non-specific affinity label | 28.3 | –
2 | CSC(=O)C#CC(C)(C)N(C)CCOCc1ccccc1 [Example 3, S-methyl 4-[2-benzyloxyethyl(methyl)amino]-4-methyl-pent-2-ynethioate] | 3.1 ± 0.8 | 9 | – | 8.33 | specific | 642 | higher specificity
3 | CSC(=O)C#CC(C)(C)N(C)CCOCc1ccc(C)c(C)c1 [Example 5, S-methyl 4-[2-[(3,4-dimethylphenyl)methoxy]ethyl-methyl-amino]-4-methyl-pent-2-ynethioate] | 12 ± 3 | 40.8 | – | 61.7 | specific | 197 | higher specificity
